Measurements taken from US20230312550A1, “N-(2-(4-CYANOTHIAZOLIDIN-3-YL)-2-OXOETHYL)-QUINOLINE-4-CARBOXAMIDES” (AstraZeneca AB, priority 2020, published 2023).
In brackets after ≈: the same amount, converted by molar mass.

How the values were obtained:
[1] = biological target: human Fibroblast activation protein alpha (hFAP) (Homo sapiens (Human), UniProt Q12884); experiment: hFAP inhibition assay (tight binders); type: biochemical; conditions: Ala-Pro-AMC 20 μM, n = 1 or geometric mean n = 2-6; note: hFAP 2.4 pM
Description: The plates were read on a PHERAstar® reader with excitation 340 nm and emission 460 nm. Data were analyzed in Genedata Screener®. IC50 values were determined by plotting % inhibition versus log compound concentration and using a one site dose response model.

hFAP (M39-A757) = hFAP (M39-A757) (Homo sapiens (Human), UniProt Q12884); experiment: hFAP binding assay (surface plasmon resonance); conditions: SPR, 20° C.; for hFAP Binding assay k(off) / hFAP Binding assay k(on): single cycle kinetics; for Kd: n = 1 or geometric mean n = 2-4
[2] = biological target: Prolyl endopeptidase, Prolyl Oligopeptidase (hPREP) (Homo sapiens (Human), UniProt P48147); experiment: hPrep inhibition assay; type: biochemical; conditions: hPREP 0.6 nM, Z-Gly-Pro-amino-methylcoumarin 50 μM; read-out: PREP IC50
Summary of the method: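 Recombinant human PREP at 0.6 nM final with Z-Gly-Pro-AMC substrate at 50 μM final in Tris-HCl pH 7.5, NaCl, Triton X-100, glutathione; 15 min rt preincubation then 20 min rt reaction in dark. AMC fluorescence (ex 340/em 460 nm); IC50 from one-site dose-response fit of % inhibition.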

[3] = Metabolic stability in rat hepatocytes (rHep); conditions: n = 1 or geometric mean of n = 2-3
[4] = Metabolic stability in human liver microsomes (HLM); conditions: for microsomal CLint: human
Description: Metabolic stability in HLM was measured as described in J Comput Aided Mol Des 2015, 29, 795.

[5] = kinetic from dmso stock, Solubility, kinetic solubility, n = 1 or average of n = 2-3
[6] = HLM CLint, n = 1 or average of n = 2-3

Sequence of Prolyl endopeptidase, Prolyl Oligopeptidase (hPREP) (P48147 whole entry): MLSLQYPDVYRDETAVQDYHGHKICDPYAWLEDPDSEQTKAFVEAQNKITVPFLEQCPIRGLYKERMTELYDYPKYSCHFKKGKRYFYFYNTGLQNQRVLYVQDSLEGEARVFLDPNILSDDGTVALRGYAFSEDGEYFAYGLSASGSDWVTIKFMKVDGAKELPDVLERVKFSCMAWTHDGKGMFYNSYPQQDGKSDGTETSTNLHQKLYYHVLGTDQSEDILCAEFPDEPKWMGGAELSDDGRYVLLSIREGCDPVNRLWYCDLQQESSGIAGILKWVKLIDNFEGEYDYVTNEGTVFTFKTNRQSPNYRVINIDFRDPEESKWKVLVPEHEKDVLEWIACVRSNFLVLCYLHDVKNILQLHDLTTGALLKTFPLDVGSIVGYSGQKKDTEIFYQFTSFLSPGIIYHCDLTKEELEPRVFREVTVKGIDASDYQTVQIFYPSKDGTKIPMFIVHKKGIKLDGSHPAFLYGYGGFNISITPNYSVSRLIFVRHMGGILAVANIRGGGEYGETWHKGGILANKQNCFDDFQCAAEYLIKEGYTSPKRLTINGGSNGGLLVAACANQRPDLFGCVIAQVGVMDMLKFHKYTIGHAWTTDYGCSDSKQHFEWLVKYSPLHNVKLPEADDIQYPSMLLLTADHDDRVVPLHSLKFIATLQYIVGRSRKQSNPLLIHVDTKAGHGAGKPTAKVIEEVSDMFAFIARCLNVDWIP
Sequence of hFAP (M39-A757) (Q12884 39-757): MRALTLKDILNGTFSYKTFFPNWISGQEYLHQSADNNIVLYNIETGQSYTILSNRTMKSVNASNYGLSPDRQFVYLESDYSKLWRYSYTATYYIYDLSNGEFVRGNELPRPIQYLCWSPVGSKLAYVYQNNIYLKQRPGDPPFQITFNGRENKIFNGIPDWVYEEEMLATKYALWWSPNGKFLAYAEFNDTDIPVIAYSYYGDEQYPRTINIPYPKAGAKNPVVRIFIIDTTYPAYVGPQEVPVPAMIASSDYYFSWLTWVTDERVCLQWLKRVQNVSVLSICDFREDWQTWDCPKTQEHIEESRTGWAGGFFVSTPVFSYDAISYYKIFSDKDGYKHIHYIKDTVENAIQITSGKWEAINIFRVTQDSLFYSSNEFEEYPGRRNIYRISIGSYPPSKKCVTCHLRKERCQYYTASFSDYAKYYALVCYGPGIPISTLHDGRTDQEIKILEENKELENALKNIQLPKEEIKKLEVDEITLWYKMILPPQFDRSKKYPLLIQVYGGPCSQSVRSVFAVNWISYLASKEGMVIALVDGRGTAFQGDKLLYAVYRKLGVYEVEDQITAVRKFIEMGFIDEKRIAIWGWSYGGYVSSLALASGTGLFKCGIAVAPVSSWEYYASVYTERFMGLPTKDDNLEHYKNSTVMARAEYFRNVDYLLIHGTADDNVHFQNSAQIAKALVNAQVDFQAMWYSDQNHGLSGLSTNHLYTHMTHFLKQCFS
Sequence of human Fibroblast activation protein alpha (hFAP) (Q12884 38-760): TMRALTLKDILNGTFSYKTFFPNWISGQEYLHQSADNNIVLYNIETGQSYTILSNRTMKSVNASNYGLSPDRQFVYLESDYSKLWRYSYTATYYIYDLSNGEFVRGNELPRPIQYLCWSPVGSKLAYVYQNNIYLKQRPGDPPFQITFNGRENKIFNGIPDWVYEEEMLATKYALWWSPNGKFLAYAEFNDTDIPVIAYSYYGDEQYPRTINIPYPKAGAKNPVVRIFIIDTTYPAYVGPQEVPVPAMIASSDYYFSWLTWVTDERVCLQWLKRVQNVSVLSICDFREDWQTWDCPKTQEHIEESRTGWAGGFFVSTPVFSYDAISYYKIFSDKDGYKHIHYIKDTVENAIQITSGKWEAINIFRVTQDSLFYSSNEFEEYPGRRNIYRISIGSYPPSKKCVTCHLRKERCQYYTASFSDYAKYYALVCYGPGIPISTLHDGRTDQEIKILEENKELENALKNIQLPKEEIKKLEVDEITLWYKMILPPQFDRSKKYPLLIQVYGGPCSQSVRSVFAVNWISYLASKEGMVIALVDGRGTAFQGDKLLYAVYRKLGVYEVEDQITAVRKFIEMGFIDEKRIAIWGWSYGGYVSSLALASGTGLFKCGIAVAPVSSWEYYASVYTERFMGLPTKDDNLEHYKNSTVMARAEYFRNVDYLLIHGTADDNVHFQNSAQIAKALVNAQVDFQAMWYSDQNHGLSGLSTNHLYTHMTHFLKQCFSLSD
Description for Kinetic solubility: Kinetic solubility was measured as described in Comput Aided Mol Des 2015, 29, 795.

| IC50 [1] | hFAP Binding assay k(off) (hFAP (M39-A757)) | hFAP Binding assay k(on) (hFAP (M39-A757)) | Kd (hFAP (M39-A757)) | IC50 [2] | solubility (Kinetic solubility; kinetic solubility, n = 1 or average of n = 2-3) | rHep CLint [3] | HLM CLint ([4]; n = 1 or average of n = 2-3) | solubility (Kinetic solubility; [5]) | microsomal CLint [4, 6] | SMILES | solubility (Kinetic solubility; kinetic from dmso stock) | microsomal CLint [4] |
| --- | --- | --- | --- | --- | --- | --- | --- | --- | --- | --- | --- | --- |
| 0.087 nM | 0.00011 s⁻¹ | 4000000 M⁻¹ s⁻¹ | 0.032 nM | 720 nM | 800 µM (≈ 384 µg/mL) | 35 μL/min/1E6 | 260 µL/min/mg |  |  | N#C[C@@H]1CSCN1C(=O)CNC(=O)c1ccnc2ccc(N3CCOC[C@@H]3C(F)(F)F)cc12 (single isomer, unassigned) [Example 85, N-(2-((R)-4-Cyanothiazolidin-3-yl)-2-oxoethyl)-6-((R*)-3-(trifluoromethyl)-morpholino)quinoline-4-carboxamide] |  |  |
| 0.05 nM | 0.000074 s⁻¹ | 1100000 M⁻¹ s⁻¹ | 0.068 nM | 210 nM |  | 33 μL/min/1E6 |  | 1.8 µM (≈ 0.798 µg/mL) | 45 µL/min/mg | N#C[C@@H]1CSCN1C(=O)CNC(=O)c1ccnc2ccc(N3CC4C(C3)C4(F)F)cc12 (stereo partly drawn) [Example 160, N-(2-((R)-4-Cyanothiazolidin-3-yl)-2-oxoethyl)-6-(6,6-difluoro-3-azabicyclo[3.1.0]hexan-3-yl)quinoline-4-carboxamide] |  |  |
| 0.11 nM | 0.000098 s⁻¹ | 9500000 M⁻¹ s⁻¹ | 0.013 nM | 340 nM |  | 17 μL/min/1E6 |  | 74 µM (≈ 31.3 µg/mL) | 70 µL/min/mg | CCC1(C)CN(c2ccc3nccc(C(=O)NCC(=O)N4CSC[C@H]4C#N)c3c2)C1 [Example 137, (R)—N-(2-(4-Cyanothiazolidin-3-yl)-2-oxoethyl)-6-(3-ethyl-3-methyl-azetidin-1-yl)quinoline-4-carboxamide] |  |  |
| 0.22 nM | 0.000066 s⁻¹ | 1200000 M⁻¹ s⁻¹ | 0.056 nM | 310 nM |  | 120 μL/min/1E6 |  | 100 µM | 140 µL/min/mg | N#C[C@@H]1CSCN1C(=O)CNC(=O)c1ccnc2ccc(N3C[C@@H]4CCC[C@@H]43)cc12 (mixture of isomers) [Example 156, 6-((1RS,5RS)-6-Azabicyclo[3.2.0]heptan-6-yl)-N-(2-((R)-4-cyanothiazolidin-3-yl)-2-oxoethyl)quinoline-4-carboxamide] |  |  |
| 0.072 nM |  |  | 0.062 nM | 230 nM |  | 36 μL/min/1E6 |  | 4.5 µM (≈ 2.01 µg/mL) | 170 µL/min/mg | N#C[C@@H]1CSCN1C(=O)CNC(=O)c1ccnc2ccc(-n3ncc4c3CCCC4)cc12 [Example 114, (R)—N-(2-(4-Cyanothiazolidin-3-yl)-2-oxoethyl)-6-(4,5,6,7-tetrahydro-1H-indazol-1-yl)quinoline-4-carboxamide] |  |  |
| 0.24 nM | 0.00012 s⁻¹ | 740000 M⁻¹ s⁻¹ | 0.16 nM | 360 nM |  | 11 μL/min/1E6 |  | 940 µM (≈ 440 µg/mL) | 53 µL/min/mg | C[C@@H]1CN(c2ccc3nccc(C(=O)NCC(=O)N4CSC[C@H]4C#N)c3c2)C[C@H](C)[C@]1(C)O [Example 193, N-(2-((R)-4-Cyanothiazolidin-3-yl)-2-oxoethyl)-6-((3R,4S,5S)-4-hydroxy-3,4,5-trimethylpiperidin-1-yl)quinoline-4-carboxamide] |  |  |
| 0.04 nM |  |  | 0.11 nM | 130 nM |  | 20 μL/min/1E6 |  | 0.59 µM (≈ 0.263 µg/mL) | 120 µL/min/mg | N#C[C@@H]1CSCN1C(=O)CNC(=O)c1ccnc2ccc(-n3cc4c(n3)CCCC4)cc12 [Example 115, (R)—N-(2-(4-Cyanothiazolidin-3-yl)-2-oxoethyl)-6-(4,5,6,7-tetrahydro-2H-indazol-2-yl)quinoline-4-carboxamide] |  |  |
| 0.1 nM | 0.000078 s⁻¹ | 520000 M⁻¹ s⁻¹ | 0.11 nM | 480 nM |  | >300 μL/min/1E6 |  | 33 µM (≈ 15.6 µg/mL) | > 300 µL/min/mg | CC1(C)CN(c2ccc3nccc(C(=O)NCC(=O)N4CSC[C@H]4C#N)c3c2)CCC1(F)F [Example 38, (R)—N-(2-(4-Cyanothiazolidin-3-yl)-2-oxoethyl)-6-(4,4-difluoro-3,3-dimethylpiperidin-1-yl)quinoline-4-carboxamide] |  |  |
| 0.069 nM | 0.000057 s⁻¹ | 1600000 M⁻¹ s⁻¹ | 0.036 nM | 460 nM |  | 13 μL/min/1E6 |  | 33 µM (≈ 15.4 µg/mL) | 40 µL/min/mg | N#C[C@@H]1CSCN1C(=O)CNC(=O)c1ccnc2ccc(N3CC(F)(C(F)(F)F)C3)cc12 [Example 143, (R)—N-(2-(4-Cyanothiazolidin-3-yl)-2-oxoethyl)-6-(3-fluoro-3-(trifluoromethyl)azetidin-1-yl)quinoline-4-carboxamide] |  |  |
| 0.15 nM | 0.00017 s⁻¹ | 1400000 M⁻¹ s⁻¹ | 0.12 nM | 450 nM |  | 4.3 μL/min/1E6 |  | 24 µM (≈ 10.3 µg/mL) | 11 µL/min/mg | N#C[C@@H]1CSCN1C(=O)CNC(=O)c1ccnc2ccc(N3CC(CCF)C3)cc12 [Example 146, (R)—N-(2-(4-Cyanothiazolidin-3-yl)-2-oxoethyl)-6-(3-(2-fluoroethyl)-azetidin-1-yl)quinoline-4-carboxamide] |  |  |
| 0.088 nM | 0.000055 s⁻¹ | 1800000 M⁻¹ s⁻¹ | 0.028 nM | 530 nM |  | 6.7 μL/min/1E6 |  | 1.8 µM (≈ 0.86 µg/mL) | 43 µL/min/mg | N#C[C@@H]1CSCN1C(=O)CNC(=O)c1ccnc2ccc(N3CC(CCC(F)(F)F)C3)cc12 [Example 142, (R)—N-(2-(4-Cyanothiazolidin-3-yl)-2-oxoethyl)-6-(3-(3,3,3-trifluoropropyl)azetidin-1-yl)quinoline-4-carboxamide] |  |  |
| 0.3 nM | 0.00026 s⁻¹ | 2300000 M⁻¹ s⁻¹ | 0.1 nM | 170 nM |  | 250 μL/min/1E6 |  | 85 µM (≈ 37 µg/mL) | > 300 µL/min/mg | N#C[C@@H]1CSCN1C(=O)CNC(=O)c1ccnc2ccc(N3CCC[C@@H]3C3CC3)cc12 (single isomer, unassigned) [Example 199, N-(2-((R)-4-Cyanothiazolidin-3-yl)-2-oxoethyl)-6-((R*)-2-cyclopropyl-pyrrolidin-1-yl)quinoline-4-carboxamide] |  |  |
| 0.24 nM | 0.00023 s⁻¹ | 2500000 M⁻¹ s⁻¹ | 0.09 nM | 130 nM |  | >300 μL/min/1E6 |  | 81 µM (≈ 35.3 µg/mL) | > 300 µL/min/mg | N#C[C@@H]1CSCN1C(=O)CNC(=O)c1ccnc2ccc(N3CCC[C@H]3C3CC3)cc12 (single isomer, unassigned) [Example 200, N-(2-((R)-4-Cyanothiazolidin-3-yl)-2-oxoethyl)-6-((R*)-2-cyclopropyl-pyrrolidin-1-yl)quinoline-4-carboxamide] |  |  |
| 0.13 nM | 0.00016 s⁻¹ | 2400000 M⁻¹ s⁻¹ | 0.066 nM | 1800 nM |  | 11 μL/min/1E6 |  | 310 µM (≈ 149 µg/mL) | 32 µL/min/mg | N#C[C@@H]1CSCN1C(=O)CNC(=O)c1ccnc2ccc(N3CCO[C@@H](C(F)(F)F)C3)cc12 [Example 73, N-(2-((R)-4-Cyanothiazolidin-3-yl)-2-oxoethyl)-6-((R)-2-(trifluoromethyl)-morpholino)quinoline-4-carboxamide] |  |  |

| SMILES | IC50 [1] | hFAP Binding assay k(off) (hFAP (M39-A757)) | hFAP Binding assay k(on) (hFAP (M39-A757)) | Kd (hFAP (M39-A757)) | IC50 [2] | solubility (Kinetic solubility; kinetic solubility, n = 1 or average of n = 2-3) | rHep CLint [3] | HLM CLint ([4]; n = 1 or average of n = 2-3) | solubility (Kinetic solubility; [5]) | microsomal CLint [4, 6] | solubility (Kinetic solubility; kinetic from dmso stock) | microsomal CLint [4] |
| --- | --- | --- | --- | --- | --- | --- | --- | --- | --- | --- | --- | --- |
| N#C[C@@H]1CSCN1C(=O)CNC(=O)c1ccnc2ccc(N3CC4(CC(C(F)(F)F)C4)C3)cc12 [Example 150, (R)—N-(2-(4-Cyanothiazolidin-3-yl)-2-oxoethyl)-6-(6-(trifluoromethyl)-2-azaspiro[3.3]heptan-2-yl)quinoline-4-carboxamide] | 0.5 nM | 0.000043 s⁻¹ | 280000 M⁻¹ s⁻¹ | 0.16 nM | 2000 nM |  | 5 μL/min/1E6 |  |  |  | 77 µM (≈ 37.7 µg/mL) | 49 µL/min/mg |
| N#C[C@@H]1CSCN1C(=O)CNC(=O)c1ccnc2ccc(N3CC4(CC4)C3)cc12 [Example 164, (R)—N-(2-(4-Cyanothiazolidin-3-yl)-2-oxoethyl)-6-(5-azaspiro[2.3]hexan-5-yl)quinoline-4-carboxamide] | 0.081 nM | 0.000036 s⁻¹ | 1400000 M⁻¹ s⁻¹ | 0.027 nM | 240 nM |  | 8.1 μL/min/1E6 |  |  |  | 64 µM (≈ 26.1 µg/mL) | 22 µL/min/mg |
